In publication PMC7876106 (Scientific Reports, 2021):

Columns and labels:
[1] = test system: TRF2 interaction with TERRA; test: RNA-ChIP assay of TRF2-TERRA interaction in LOX cells; format: cell-based; settings: Homo sapiens, 24 h, read-out: inhibition of TRF2 interaction with TERRA relative to PP control
Experimental: Mei et al, 2020 TERRA Requires TRF2 GAR Domain […]
blot procedures. Northern blot was performed as previously described with some modifications […]
2. Briefly, 6 µg RNA was denatured in NorthernMax formaldehyde loading dye (Ambion) for 15 […]
min at 65 °C and separated by 1.2% agarose formamide gel in 1X Mops buffer (Ambion) at […]
5V/cm for 2-3 hrs. RNA samples were transferred to GeneScreen Plus blotting membranes […]
(Perkin-Elmer) with 10X SSC and UV cross-linked onto membranes at 125 mJ in UV […]
Stratalinker 2400 (Stratagene). The hybridization was performed using a 32P-labeled TERRA […]
probe in Church buffer (0.5 N Na-phosphate, pH 7.2, 7% SDS, 1 mM EDTA, 1% BSA) for […]
overnight at 50 °C. The blot was washed twice in 0.2 N Na-phosphate, 2% SDS, and 1 mM […]
EDTA at room temperature and once in 0.1 N Na-phosphate, 2% SDS, and 1 mM EDTA at […]
50 °C. Images were collected by phosphor- imager (Amersham Biosciences), and were […]
visualized with a Typhoon 9410 Imager (GE Healthcare) and quantified with ImageQuant TL […]
Genomic DNA was isolated from cells using a genomic DNA purification kit (Promega) and digested with AluI and MboI. Digested genomic DNA was purified by phenol/choloroform extraction and quantified using a Qubit 4 Fluorometer (Thermal Scientific). […] The DNA was transferred to GeneScreen Plus blotting membranes (Perkin-Elmer) and analyzed by Southern blot. […]

[2] = test system: nascent TERRA transcripts; test: Nascent RNA capture (EU, Click-iT) and RT-qPCR for TERRA in LOX cells; format: cell-based, human; settings: 2 μM, 48 h, then EU 4 h
Experimental: Mei et al, 2020 TERRA Requires TRF2 GAR Domain
Nascent RNA analysis was performed as described previously 2 by the use of Click-iT Nascent RNA capture kit (Life Technologies) with some modifications. Briefly, LOX cells were treated with 2 µM of chemicals, or LOX TRF2DB cells were induced with 1 µg/ml of doxycycline for 48 hrs, and then treated cells were pulse labeled 0.2 mM EU for additional 4 hrs. Total RNA was prepared and biotinylated by Click reaction. Nascent RNA was purified by using Streptavidin T1 magnetic beads and was subject to cDNA synthesis using SuperScript VILO cDNA synthesis kit (Life Technologies). Relative Nascent RNA expression was determined using DCT methods relative to control gene U1 or Actin. Primer sequences used in qPCR analysis of 10q, 13q, XYq, and 18q TERRA were described previously 2.
Reference (Supplmentary Methods)
1 Deng, Z., Norseen, J., Wiedmer, A., Riethman, H. & Lieberman, P. M. TERRA RNA binding to TRF2 facilitates heterochromatin formation and ORC recruitment at telomeres. Mol […]
2 Deng, Z. et al. HSV-1 remodels host telomeres to facilitate viral replication. Cell Rep 9,
3 Deng, Z. et al. A role for CTCF and cohesin in subtelomere chromatin organization, TERRA transcription, and telomere end protection. EMBO J 31, 4165-4178, […]

[3] = test system: TERRA antisense (5'-fluorescein) (RNA, single strand) CCCUAACCCUAACCCUAACCCUAA; test: fluorescence polarization; settings: 150 mM salt (KCl, NaCl or LiCl; which not stated); 20 mM HEPES pH 7.5, room temperature, tRNA competitor; dilutions from 50 μM compound

Structure (SMILES)	inhibition at 2 µM [1] [%]	nascent TERRA transcripts from chromosomes 10q, XYq and 18q [2]	binding [3]
CN(C)c1ccc(Nc2c3ccc(NC(=O)CCN4CCCC4)cc3nc3cc(NC(=O)CCN4CCCC4)ccc23)cc1 [BRACO-19]	~50	significant reduction (~ two fold)	no
CCc1c(C)c2cc3nc(cc4nc(cc5c(CC)c(C)c(cc1[nH]2)n5C)C(C)=C4CCC(=O)O)C(CCC(=O)O)=C3C [NMM, N-methyl mesoporphyrin IX]	~50	significant reduction (~ two fold)	no
